Experimental findings from patent US5691372A, “Oxygenated-Heterocycle containing sulfonamide inhibitors of aspartyl protease” (Vertex Pharmaceuticals Incorporated, priority 1995, dated 1997) are described below.

The target in assay [1] is HIV-1 protease (Human immunodeficiency virus type 1 group M subtype B, UniProt P04585). Kind of assay: inhibition constants against HIV-1 protease (method of Pennington et al.). It is filed as biochemical. From the text: We have measured the inhibition constants of each compound against HIV-1 protease using the method described essentially by M. W. Pennington et al., Peptides 1990, Gimet, E. and D. Andrew, Eds., Escom; Leiden, Netherlands (1990).
We measured the inhibition constants of the compounds listed in Table II against HIV-1 protease using the above-cited method of Pennington et al.

Assay [2] relates to HIVIIIb in CCRM-CEM cells. Kind of assay: anti-viral potency in CCRM-CEM cells acutely infected with HIVIIIb, extracellular p24 antigen (method of Meek et al.). The format is cell-based, HIV-1; CD4+ human T-cell lymphoma cells. Particulars: Human immunodeficiency virus 1. The procedure:
Compounds of formula I were tested for their antiviral potency in several virological assays. In the first assay, the compounds were added as a solution in dimethylsulfoxide (DMSO) to a test cell culture of CCRM-CEM cells, a strain of CD4^+ human T-cell lymphoma cells, previously acutely infected with […] using standard protocols (see Meek, T. D. et al., "Inhibition of HIV-1 protease in infected T-lymphocytes by synthetic peptide analogues", Nature, 343, p. 90 (1990). Preferred compounds are those which are able to inhibit 90% of viral infectivity at a concentration of 1 μM or less. More preferred compounds are those which are able to inhibit 90% of viral infectivity at a concentration of 100 nM or less. The effect of the compounds on inhibiting the replication of the virus was measured by determining the HIV extracellular p24 antigen concentration using a commercial enzyme immunoassay (obtained from Coulter Corporation, Hialeah, Fla.). […] Ki and IC90 values are expressed in nM. The designation "ND" is used where a given compound was not tested.

`Nc1cccc(S(=O)(=O)N(CC2CCCC2)C[C@@H](O)[C@H](Cc2ccccc2)NC(=O)OC2COC3OCCCC23)c1` (single isomer, unassigned) [Compound 8] registered an inhibitory constant (Ki) in assay [1] of under 0.1 nM.

`CC(C)CN(C[C@@H](O)[C@H](Cc1ccccc1)NC(=O)OC1(C)CCOC1)S(=O)(=O)c1cccc(N)c1` (stereo partly drawn) [Compound 16, 3-Amino-N-((2 syn, 3S)-2-hydroxy-4-phenyl-3-(3-methyltetrahydrofuran-3-yl)oxycarbonylamino)butyl-N-isobutyl-benzenesulfonamide] had a Ki in assay [1] of 1.5 nM.

In the case of `Nc1cccc(S(=O)(=O)N(CC2CCCC2)C[C@@H](O)[C@H](Cc2ccccc2)NC(=O)OC2COCOC2)c1` [Compound 6, 3-Amino-N-cyclopentylmethyl-N-((2 syn, 3S)-2-hydroxy-4-phenyl-3-(1,3-dioxan-5-yl-oxycarbonylamino))butyl-benzenesulfonamide], in assay [2], the IC90 came out at 5 nM. The compound further yielded a Ki in assay [1] of under 0.1 nM.

`Nc1ccc(S(=O)(=O)N(CC2CCCC2)C[C@@H](O)[C@H](Cc2ccccc2)NC(=O)OC2COCOC2)cc1` [Compound 3, 4-Amino-N-cyclopentylmethyl-N-((2 syn, 3S)-2-hydroxy-4-phenyl-3-(1,3-dioxan-5-yl-oxycarbonylamino))butyl-benzenesulfonamide]: the 90% effect level in assay [2] (IC90) was put at 4 nM. Moreover, the Ki in assay [1] turned out to be 0.1 nM.

For `CC(C)CN(C[C@@H](O)[C@H](Cc1ccccc1)NC(=O)OC1COCOC1)S(=O)(=O)c1cccc(N)c1` [Compound 5, 3-Amino-N-((2 syn, 3S)-2-hydroxy-4-phenyl-3-1,3-dioxan-5-yl-oxycarbonylamino)butyl-N-isobutyl-benzenesulfonamide], the IC90 in assay [2] came to 7 nM. In assay [1], this compound registered a Ki of 0.15 nM.

In the case of `CC(C)C[C@H](NC(=O)OC1COC2OCCCC12)[C@H](O)CN(CC1CCCCC1)S(=O)(=O)c1cccc(N)c1` (stereo partly shown) [Compound 12], the Ki in assay [1] stood at 1.5 nM.

`CC(=O)Nc1ccc(S(=O)(=O)N(C)C[C@@H](O)[C@H](Cc2ccccc2)NC(=O)OC2COC3OCCCC23)cc1` (stereo partly drawn) [Compound 11, 4-Acetamido-N-((2 syn, 3S)-2-hydroxy-4-phenyl-3-tetrahydropyrano-[2,3-b]tetrahydrofuran-4-yloxycarbonylamino)butyl-N-methyl-benzenesulfonamide]: the affinity in assay [1], expressed as Ki, was 160 nM.

In turn, `Nc1cccc(S(=O)(=O)N(CC2CCCC2)C[C@@H](O)[C@H](Cc2ccccc2)NC(=O)OC2COC3OCCCC23)c1` (single isomer, unassigned) [Compound 7] displayed a Ki in assay [1] of under 0.1 nM.

`CC1(OC(=O)N[C@@H](Cc2ccccc2)[C@H](O)CN(CC2CCCC2)S(=O)(=O)c2cccc(N)c2)CCOC1` (stereo partly drawn) [Compound 15, 3-Amino-N-cyclopentylmethyl-N-((2 syn, 3S)-2-hydroxy-4-phenyl-3-(3-methyltetrahydrofuran-3-yl)oxycarbonylamino)butyl-benzenesulfonamide] gave a Ki in assay [1] of 0.4 nM.

On to `CC(C)CN(C[C@@H](O)[C@H](Cc1ccccc1)NC(=O)OC1COC2OCCCC12)S(=O)(=O)c1cccc(N)c1` (single isomer, unassigned) [Compound 10], for which the Ki in assay [1] was under 0.1 nM.

In assay [2], `COc1ccc(S(=O)(=O)N(CC2CCCC2)C[C@@H](O)[C@H](Cc2ccccc2)NC(=O)OC2COCOC2)cc1` [Compound 1, N-Cyclopentylmethyl-N-((2 syn, 3S)-2-hydroxy-4-phenyl-3-(1,3-dioxan-5-yl-oxycarbonylamino))butyl-4-methoxy-benzenesulfonamide] gave an IC90 of 5 nM. In assay [1], this compound gave an inhibitory constant (Ki) of under 0.1 nM.

`CC(C)CN(C[C@@H](O)[C@H](Cc1ccccc1)NC(=O)OC1COCOC1)S(=O)(=O)c1ccc(N)cc1` [Compound 4, 4-Amino-N-((2 syn, 3S)-2-hydroxy-4-phenyl-3-1,3-dioxan-5-yl-oxycarbonylamino)butyl-N-isobutyl-benzenesulfonamide] registered an IC90 in assay [2] of 12 nM. In assay [1], affinity was put at a Ki of 0.3 nM.

In assay [1], `CC(C)CN(C[C@@H](O)[C@H](Cc1ccccc1)NC(=O)OC1COC2OCCCC12)S(=O)(=O)c1cccc(N)c1` (single isomer, unassigned) [Compound 9] displayed a Ki of 0.1 nM. In other words, the sub-nanomolar range.

For `COc1ccc(S(=O)(=O)N(CC2CCCC2)C[C@@H](O)[C@H](Cc2ccccc2)NC(=O)OCC2COCO2)cc1` (stereo partly drawn) [Compound 2, N-Cyclopentylmethyl-N-((2 syn, 3S)-2-hydroxy-4-phenyl-3-(1,3-dioxolan-4-yl-methoxycarbonylamino))butyl-4-methoxy-benzenesulfonamide], the Ki in assay [1] was determined as 0.3 nM.

By Ki is commonly meant a measure of affinity in units of concentration, obtained from inhibition or displacement. A low value points to tighter binding. In general, IC90 refers to the point of the concentration-response curve where the effect stands at 90%. A low value points to an effect from little substance.
